Measured values from the supplement of paper PMC10307832.

Experiments:
Experiment in all cases: relative viability (nuclei count vs DMSO), 5 days (fraction); higher = more cells survive
Imatinib + Tozasertib = compound: Cc1ccc(NC(=O)c2ccc(CN3CCN(C)CC3)cc2)cc1Nc1nccc(-c2cccnc2)n1 [Imatinib] + Cc1cc(Nc2cc(N3CCN(C)CC3)nc(Sc3ccc(NC(=O)C4CC4)cc3)n2)n[nH]1 [Tozasertib] (partner 0.1 µM)
Procedure, shortened: (§1)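 After 5 days of treatment, lung cancer cells in 1536-well plates were fixed and stained in a single step (final 0.05% Triton X-100, 1% formaldehyde, 1 ug/ml Hoechst) and their nuclei counted on 4× images. Treatment had been applied by pin tool the day after seeding as one drug alone or as a fixed anchor-drug dose with five library-drug doses (not always all listed) in √10 steps. Relative viability is the nuclei count of treated wells divided by that of vehicle wells, and values are medians of duplicate plates.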

Imatinib + Palbociclib = compound: Cc1ccc(NC(=O)c2ccc(CN3CCN(C)CC3)cc2)cc1Nc1nccc(-c2cccnc2)n1 [Imatinib] + CC(=O)c1c(C)c2cnc(Nc3ccc(N4CCNCC4)cn3)nc2n(C2CCCC2)c1=O [Palbociclib] (partner 0.5 µM)
Procedure, shortened: as §1

Imatinib + Navitoclax = compound: Cc1ccc(NC(=O)c2ccc(CN3CCN(C)CC3)cc2)cc1Nc1nccc(-c2cccnc2)n1 [Imatinib] + CC1(C)CCC(c2ccc(Cl)cc2)=C(CN2CCN(c3ccc(C(=O)NS(=O)(=O)c4ccc(N[C@H](CCN5CCOCC5)CSc5ccccc5)c(S(=O)(=O)C(F)(F)F)c4)cc3)CC2)C1 [Navitoclax] (partner 0.5 µM)
Procedure, shortened: as §1

Imatinib + Linsitinib = compound: Cc1ccc(NC(=O)c2ccc(CN3CCN(C)CC3)cc2)cc1Nc1nccc(-c2cccnc2)n1 [Imatinib] + C[C@]1(O)C[C@@H](c2nc(-c3ccc4ccc(-c5ccccc5)nc4c3)c3c(N)nccn32)C1 [Linsitinib] (partner 1 µM)
Procedure, shortened: as §1

| Cell Line | relative viability (Imatinib + Tozasertib; first compound 0.02 µM) | relative viability (Imatinib + Tozasertib; first compound 0.06325 µM) | relative viability (Imatinib + Tozasertib; first compound 0.2 µM) | relative viability (Imatinib + Tozasertib; first compound 0.6325 µM) | relative viability (Imatinib + Tozasertib; first compound 2 µM) | relative viability (Imatinib + Palbociclib; first compound 0.02 µM) | relative viability (Imatinib + Palbociclib; first compound 0.06325 µM) | relative viability (Imatinib + Palbociclib; first compound 0.2 µM) | relative viability (Imatinib + Palbociclib; first compound 0.6325 µM) | relative viability (Imatinib + Palbociclib; first compound 2 µM) | relative viability (Imatinib + Navitoclax; first compound 0.02 µM) | relative viability (Imatinib + Navitoclax; first compound 0.06325 µM) | relative viability (Imatinib + Navitoclax; first compound 0.2 µM) | relative viability (Imatinib + Navitoclax; first compound 0.6325 µM) | relative viability (Imatinib + Navitoclax; first compound 2 µM) | relative viability (Imatinib + Linsitinib; first compound 0.02 µM) | relative viability (Imatinib + Linsitinib; first compound 0.06325 µM) | relative viability (Imatinib + Linsitinib; first compound 0.6325 µM) | relative viability (Imatinib + Linsitinib; first compound 2 µM) | relative viability (Imatinib + Linsitinib; first compound 0.2 µM) |
| --- | --- | --- | --- | --- | --- | --- | --- | --- | --- | --- | --- | --- | --- | --- | --- | --- | --- | --- | --- | --- |
| HCC-827 | 0.404 | 0.486 | 0.407 | 0.407 | 0.421 | 0.474 | 0.557 | 0.516 | 0.461 | 0.455 | 1.05 | 0.947 | 1.08 | 1.05 | 0.973 | 1.02 | 0.96 | 0.98 | 0.897 | – |
| HOP-62 | 0.431 | – | 0.356 | 0.353 | 0.326 | 0.503 | – | 0.516 | 0.408 | 0.398 | 0.983 | – | 1.36 | 1.04 | 0.517 | 1.12 | – | 0.953 | 0.857 | – |
| IA-LM | – | – | – | – | – | – | – | – | – | – | 0.909 | 0.813 | 1.05 | 0.83 | 0.754 | 0.688 | 0.652 | 1.38 | 0.593 | 0.561 |
| LC-2-ad | 0.439 | 0.439 | 0.514 | 0.2 | 0.419 | 0.543 | – | 0.559 | 0.5 | 0.508 | 0.481 | 0.361 | 0.514 | 0.707 | 0.468 | 0.838 | 0.875 | 0.825 | 0.84 | 0.896 |
| LCLC-97TM1 | 0.236 | – | 0.14 | 0.2 | 0.214 | 0.25 | – | 0.267 | 0.172 | 0.219 | – | – | 0.605 | 0.554 | 0.399 | – | – | 0.179 | 0.184 | 0.204 |
| LCLC-103H | 0.463 | 0.473 | 0.514 | 0.481 | 0.398 | 0.465 | 0.499 | 0.457 | 0.434 | 0.418 | – | – | – | – | – | – | – | 1.03 | – | 1.08 |
| LK-2 | 0.173 | 0.181 | 0.159 | 0.139 | 0.176 | 0.757 | 0.726 | – | – | 0.662 | 0.975 | 0.685 | 0.848 | – | 0.84 | 0.614 | 0.427 | 0.222 | 0.689 | 0.739 |
| LOU-NH91 | 0.636 | 0.833 | 0.761 | 0.596 | 0.667 | 0.524 | 0.543 | 0.547 | 0.572 | 0.496 | 0.76 | – | 0.654 | 0.569 | 0.613 | 0.993 | 0.964 | 0.869 | 0.87 | 0.996 |
| LU99A | 0.283 | 0.31 | 0.219 | 0.261 | 0.238 | 0.394 | 0.424 | 0.411 | 0.413 | 0.454 | 0.905 | 0.788 | 0.807 | 1.08 | 0.855 | 0.53 | 0.543 | 0.611 | 0.615 | 0.654 |
| NCI-H358 | 0.103 | 0.121 | 0.102 | 0.0961 | 0.0939 | 0.159 | 0.138 | 0.153 | 0.142 | 0.146 | – | – | – | – | – | 0.726 | – | 0.669 | 0.863 | 0.851 |
| NCI-H596 | 0.886 | 0.964 | 0.993 | 0.72 | 0.829 | – | – | – | – | – | 1.07 | 0.861 | 1 | 0.876 | – | 1.09 | 0.958 | – | 0.969 | 1.1 |
| NCI-H650 | 0.832 | 0.682 | 0.851 | 0.697 | 0.764 | 0.303 | 0.356 | 0.353 | 0.349 | 0.298 | – | – | – | – | – | 1.27 | 0.86 | 1.05 | 0.861 | 0.95 |
| NCI-H661 | 0.383 | 0.393 | 0.365 | 0.344 | 0.347 | 0.428 | 0.368 | 0.393 | 0.394 | 0.412 | – | – | – | – | – | 0.553 | 0.345 | 0.362 | 0.56 | 0.611 |
| NCI-H1299 | – | – | – | – | – | – | – | – | – | – | 1.02 | 1.11 | 1.08 | 1.01 | 1.04 | 1.14 | 1.08 | 0.983 | – | 1.04 |
| NCI-H1563 | – | – | – | – | – | – | – | – | – | – | – | – | – | – | – | 1.15 | 1.31 | 1.25 | 1.16 | 1.22 |
| NCI-H1648 | 0.542 | 0.349 | 0.426 | – | 0.443 | 0.23 | 0.262 | 0.256 | 0.267 | 0.237 | – | – | – | – | – | – | – | – | – | – |
| NCI-H1650 | 0.449 | 0.405 | 0.337 | 0.37 | 0.303 | 0.341 | 0.344 | 0.342 | 0.295 | 0.301 | 1.39 | 1.35 | 1.25 | 1.31 | 1.13 | – | – | – | – | – |
| NCI-H1703 | – | – | – | – | – | – | – | – | – | – | 1.39 | 1.12 | 0.586 | 0.383 | 0.238 | 0.629 | 0.204 | 0.418 | 0.138 | 0.449 |
| NCI-H1734 | 0.243 | 0.268 | 0.278 | 0.259 | 0.264 | 0.348 | – | 0.402 | 0.346 | 0.351 | 0.938 | – | 1.11 | 0.758 | – | – | – | – | – | – |
| NCI-H1792 | – | – | – | – | – | 0.608 | 0.542 | 0.655 | 0.573 | 0.736 | 0.744 | 0.557 | 0.761 | 0.644 | 0.567 | 0.623 | 0.332 | 0.317 | 0.566 | 0.502 |
| NCI-H2170 | 0.872 | 0.872 | 0.752 | 0.585 | 0.712 | 0.399 | 0.438 | 0.431 | 0.408 | 0.382 | 0.722 | 0.655 | 0.672 | 0.643 | 0.633 | – | – | – | – | – |
| NCI-H2342 | 0.6 | 0.511 | 0.499 | 0.502 | 0.494 | 0.506 | 0.586 | 0.504 | 0.503 | 0.539 | – | – | – | – | – | – | – | – | – | – |
| SW 900 | 0.51 | 0.404 | 0.712 | 0.469 | 0.348 | 0.549 | 0.644 | 0.617 | 0.566 | 0.588 | – | – | – | – | – | – | – | – | – | – |
